{"source": "patent US12064420B2", "about": "“Tie-2 activators targeting the Schlemm's canal” (EyePoint Pharmaceuticals, Inc., priority 2019, dated 2024)", "key": {"mouse eyes": {"tested_on": "mouse eyes", "experiment": "Outflow facility in enucleated mouse eyes (iPerfusion)", "assay_type": "in vivo", "method": "An iPerfusion system was used to measure outflow facility in mice. The system is designed to measure outflow facility in paired mouse eyes having low flow rates (nL/min). Outflow facility is a measure of the ability of aqueous humor to flow from the trabecular meshwork to maintain a steady state TOP.\nAfter three days of treatment with either Compound 1 or placebo, eyes were enucleated, and outflow facility was measured in a masked fashion. Briefly, mice were euthanized using isoflurane and freshly enucleated, paired mouse eyes were mounted on two stabilization platforms in temperature-controlled perfusion chambers by using a small amount of cyanoacrylate glue. […]\nBoth eyes of the mice were perfused at 9 mmHg for 45-60 min to allow acclimatization and to deliver the drug or vehicle to the outflow pathway, followed by 9 sequential pressure steps of 4.5, 6, 7.5, 9, 10.5, 12, 15, 18, and 21 mmHg. The outflow from the eye was measured at multiple pressures to calculate the outflow facility.\nA non-linear flow-pressure model was used to account for the pressure dependence of outflow facility in mice. The reference facility was analyzed at a reference pressure of 8 mmHg, which approximates the physiological pressure drop across the conventional outflow pathway in living mice. […]"}, "[1]": {"tested_on": "ocular normotensive New Zealand White rabbits", "experiment": "IOP in ocular normotensive rabbits, topical ocular or subcutaneous Compound 1", "assay_type": "in vivo, rabbit", "method": "To examine the effect of Compound 1 on IOP, Compound 1 was delivered either by subcutaneous injection, or by topical drops to ocular normotensive New Zealand White rabbits, and IOP was followed over time (FIGS. 3A-3C). For this study, 25 female New Zealand White rabbits were administered the sodium salt of Compound 1 for seven days QD or BID topically (30 μL drop) into both eyes, or twice daily subcutaneously, or vehicle twice daily topically into both eyes. Eye drops (4% Compound 1 or vehicle) were administered, with study staff masked to treatment. Five dose groups (5 rabbits per group) were tested: 1) vehicle control—15% HPβCD (+1% dextrose); 2) 1.5% (15 mg/mL) Compound 1 BID; 3) 4% (40 mg/mL) Compound 1 BID; 4) 4% (40 mg/mL) Compound 1 QD; and 5) 10 mg/kg (40 mg/mL) Compound 1 administered subcutaneously BID. IOP measurements were performed at baseline (prior to the start of dosing), and once daily on days 2-8. Prior to performing IOP measurements, 1 to 2 drops of a 0.5% proparacaine solution were applied to the eye as a topical anesthetic. IOP measurements were performed with a pneumotonometer 2 hours after morning dosing. The only exceptions were Day 8 measurements, which were performed 24 hours after the final dose. IOP data were analyzed using a mixed-design two-factor ANOVA, with time as the within-subjects factor and treatment as the between-subjects factor. IOP values for Day 7 and Day 8 were analyzed using one-way ANOVA. The change from baseline IOP on Day 7 and on Day 8 was calculated for each animal, and the resulting values were analyzed using one-way ANOVA. Area under the curve (AUC) was calculated for all morning IOP measurements throughout the study for each group; AUC values for the different groups were analyzed using one-way ANOVA. Where appropriate, post hoc testing was performed using Tukey's multiple comparisons tests. The level of significance was set at 0.05."}, "Tie-2": {"tested_on": "Tie-2", "experiment": "Tie-2 phosphorylation in Schlemm's canal, whole mount immunofluorescence", "assay_type": "in vivo, mouse", "details": "1 hour after single topical ocular administration of 4% eye drops", "method": "VE-PTP expression was assessed in the endothelium of SC in VE-PTP knock-in reporter mice expressing a nuclear-localizing β-galactosidase from the endogenous VE-PTP promoter (VE-PTP+/mut). C57BL/6JRj mice were also used in the experiments as control animals. Mice were anaesthetized using ketamine (125 mg/kg) and xylazine (12.5 mg/kg). 10 μL of Compound 1 eye drop solution (4% Compound 1) or vehicle was applied to each eye. Mice were euthanized 1 hour following dosing, and the eyes were processed for immunofluorescence analysis to detect Tie-2 phosphorylation. […]\nTo evaluate VE-PTP mediated signaling, tyrosine phosphorylation and activation of Tie-2 in SC following VE-PTP inhibition was assessed one hour following a single topical ocular administration of Compound 1. […]"}, "[2]": {"details": "10 mg/kg BID subcutaneous injection"}}}
{"smiles": "COC(=O)N[C@@H](Cc1ccccc1)C(=O)N[C@@H](Cc1ccc(NS(=O)(=O)O)cc1)c1csc(-c2cccs2)n1", "note": "[Compound 1, 4-{(S)-2-[(S)-2-(Methoxycarbonylamino)-3-phenylpropanamido]-2-[2-(thiophen-2-yl)thiazol-4-yl]ethyl}phenylsulfamic acid]", "values": [{"measurement": "outflow facility", "setting": "mouse eyes; eyes dosed three days QD with 4% Compound 1, perfused with 10 μM, reference pressure 8 mmHg", "result": "3.4±0.4", "unit": "nL/min/mmHg"}, {"measurement": "increase of outflow facility compared to control", "setting": "mouse eyes; versus placebo-treated contralateral eyes", "result": 33, "unit": "%"}, {"measurement": "IOP-lowering effect on the last day of dosing (Day 7)", "setting": "[1]; [2]", "result": "the effect did not persist"}, {"measurement": "IOP-lowering effect relative to vehicle control on Days 3 and 4", "setting": "[1]; [2]", "result": "significant maximum IOP-lowering effect"}, {"measurement": "area under the curve for IOP values over 7 days versus vehicle, 1.5% TO BID or 10 mg/kg SC BID", "setting": "[1]; 4% topical ocular QD or BID", "result": "statistically-significantly lower"}, {"measurement": "time to steady-state effect on IOP", "setting": "[1]; daily topical ocular dosing of 4.0%", "result": "steady-state effect on IOP was observed by Day 3"}, {"measurement": "IOP reduction, topical ocular versus subcutaneous administration", "setting": "[1]; rabbits", "result": "larger with topical ocular administration than with subcutaneous administration"}, {"measurement": "IOP-lowering effect versus vehicle control or 1.5% Compound 1 BID", "setting": "[1]; topical ocular 4% QD and BID, 7 days", "result": "significantly larger IOP-lowering effect"}, {"measurement": "IOP on Day 8, 24 hours after the last dose", "setting": "[1]; two high-dose (4%) topical ocular groups", "result": "significant reduction in IOP persisted on Day 8"}, {"measurement": "staining of Schlemm's canal for tyrosine phosphorylated Tie-2 (pY992-Tie-2)", "setting": "Tie-2", "result": "enhanced"}]}
